From US20080242594A1, “Methods for Promoting Stem Cell Proliferation and Survival” (priority 2005, published 2008)

Key:
[1] = system: rat adult subventricular zone central nervous system stem cell cultures; assay: Survival of adult SVZ CNS stem cell cultures with insulin and Dll4; type: cell-based
Protocol: As there was a tight correlation between the Notch survival pathway and Hes3, it was investigated as to whether Hes3 is a mediator of the Notch pro-survival signalling. It was determined that both insulin and Notch activation promote the survival of foetal and adult neural stem cell cultures and their effects are additive (Tables 8-9).

[2] = system: adult mouse subventricular zone central nervous system stem cell cultures from wild-type mice; assay: Survival of adult SVZ stem cell cultures, wild-type mice; type: cell-based
Protocol: It was determined that adult mouse subventricular zone central nervous system stem cell cultures from wild-type mice respond to D114 by generating twenty-four times more cells, whereas cultures from Hes3 knock-out mice respond to D114 by generating only three times more cells. Thus, in adult mouse neural stem cell cultures, D114 greatly promotes the survival of wild-type cells (23.7±1.7 fold increase), whereas it only slightly stimulates Hes3 knock-out culture survival (2.9±0.2 fold increase).

adult rats = assay: Intraventricular infusion in normal adult rats, BrdU labeled cells; type: in vivo, rat; conditions: for concentration in the pump at which maximal effects were achieved: constant FGF2 2.5 μg/ml
Protocol: In-vivo Experiments: All drugs were infused over one week using an Alzet osmotic pump (model 2001 delivering at a rate of 1 μl/hr for seven days). Briefly, an intracerebral cannula connected to the pump was inserted into the right lateral ventricle using the following stereotaxic coordinates: bregma AP +0, Lateral −1.5 mm dorso-ventral 3.3 mm. Animals received IP injection of the tracer BrdU (50 mg/kg) every 12 hours for 5 days beginning on day one post-operatively to label dividing cells.
Immuno-positive cells were analyzed by confocal microscopy counted using a non-biased system on slides obtained from homologous coronal slices containing the infarct of each animal at the position between +0.2 and −3.8 mm from the center of the bregma according to stereotaxic coordinates. Cells were enumerated in […] regions of interest, on both the ipsilateral and contralateral hemispheres (to cannula, or cannula and ischemic focus): subventricular zone (SVZ), corpus callosum and white matter and the peri-infarct cortex.
The effect of intraventricular administration of Delta-4 was studied in adult rats. As in other tissues, the numbers of stem cells in the adult CNS are precisely controlled. […] In vivo manipulations were designed to ask if Notch ligands can act alone or substantially alter the effect of FGF2 on the numbers of proliferating cells in the SVZ of the normal brain. Animals (N=5-6 per treatment) were fitted with a mini-osmotic pump administering artificial cerebrospinal fluid (ACSF, vehicle), FGF2, Delta-4, or a combination FGF2+Delta-4 for one week into the ventricles of three-month old rats. Animals were also given twice-daily injections of bromodeoxyuridine (BrdU) from post-op days two to six to label cells generated during this time window. Two groups of animals were analyzed at day 7 and day 45 relative to the initiation of protein delivery. Delta-4 doses were chosen to provide a roughly equal concentration in the rat adult cerebrospinal fluid as in the cell culture medium of our in vitro experiments.

[3] = system: adult rat subventricular zone (SVZ); assay: Dividing (BrdU+) cells in SVZ after single lateral ventricle injection; type: in vivo; conditions: BrdU for 3 days, sacrificed on the 5th day
Protocol: In vivo, Notch and insulin also increase the number of dividing cells in the adult rat subventricular zone (SVZ) 5 days after a single injection It was determined that Notch and insulin co-operate to promote new (BrdU+) cells in vivo. Specifically, the reagents infused in the lateral ventricle of adult rats as a single injection. The rats were then given BrdU for 3 days and sacrificed on the 5th day (Table 10).

p38 MAP kinase = p38 MAP kinase phosphorylation immunoblot in CNS stem cells; type: cell-based, mouse
Text: A candidate was p38MAP kinase, known to act downstream of JAK in many cells including CNS stem cells. p38 kinase has been implicated both in differentiation and cell cycle regulation, and recently, inhibition of p38 kinase enabled the proliferation of adult mammalian […] (Engel et al., Genes Dev, 2005). Inhibition of JAK blocked CNTF induced phosphorylation of p38 (FIG. 2g).

H1 hES cells = assay: hES colony number formation, H1; type: cell-based, human; conditions: H1 line
Text: The human ES cell lines HSF-6 (University of California, San Francisco; NIH # UC06, Passage 38-120) and H1 and H9 (WiCell Research Institute, NIH # WA01 and […]) were maintained on mouse embryonic fibroblasts (MEF) according to the suppliers' protocols. Immunocytochemistry and FACS analysis for the expression of Oct4 and SSEA4 and SKY karyotyping established that the starting cells are undifferentiated and have a normal set of chromosomes. For single cell survival experiments, hES colonies were harvested after treatment with 1.5 mg/ml collagenase type IV (Invitrogen), separated from the MEF feeder cells by repeated washing by gravity, gently triturated to break up colonies into small aggregates, further dissociated into a single cell solution by trypsination (0.05% trypsin/0.04% EDTA) and transferred on MEF feeder cells at a density of 10000 cells/ml. Oct-4 positive colonies were counted six days after plating. […]
The pro-survival effects of activation of Notch and inhibition of JAK was tested on HSF-6 (NIH code UC06, http://escell.ucsf.edu), H1 (NIH code WA01, www.wicell.org) and H9 (NIH code WA09, www.wicell.org) hES cells. Singly dissociated hES cells were plated on mouse embryo fibroblasts (MEFs), treated daily for one week and colony numbers counted. […]

Molecule | Cell # [1] | survival, fold increase in cells [2] [fold] | number of BrdU+ cells in SVZ, corpus callosum and cerebral cortex (adult rats; 45 days, relative to FGF2 treated animals) | concentration in the pump at which maximal effects were achieved (adult rats; contralateral site) [µg/mL] | number of proliferating cells / BrdU incorporation (adult rats; day 7, contralateral site) | number of BrdU labeled cells in SVZ, corpus callosum and cortex (adult rats; day 7, hemisphere ipsilateral to the cannula) | concentration in the pump at which maximal effects were achieved (adult rats; ipsilateral site) | Cell # [3] | phosphorylation of p38 MAP kinase at Thr180/Tyr182 (p38 MAP kinase) | colony number formation (H1 hES cells)
Delta-4: soluble Notch ligand Delta-4 (1389-D4) from R&D | High | 23.7±1.7 | increased number of BrdU+ cells | ~4.2 | induced significant increases in BrdU incorporation | increased the number of BrdU labeled cells | approximately 0.42 μg/ml | High | – | –
CC(C)(C)c1nc2c3ccc(F)cc3c3c(=O)[nH]ccc3c2[nH]1 [JAK Inhibitor, 2-(1,1-Dimethylethyl)-9-fluoro-3,6-dihydro-7H-benz[h]-imidaz[4,5-f]isoquinolin-7-one] | – | – | – | – | – | – | – | – | reduced the levels of phosphorylation | 448.5%±57.4
